US8362022B2, “Selective subtype alpha 2 adrenergic agents and methods for use thereof” (Allergan, Inc., priority 2008, dated 2013)

What was measured:
[1] = tested on: Chung model of neuropathic pain; experiment: Chung model of neuropathic pain (tactile allodynia, von Frey hairs); assay type: in vivo; conditions: rats
Text: A model in accordance with Kim and Chung 1992, Pain […], pp 355-363 (Chung model), for chronic pain (in particular peripheral neuropathy) involves the surgical ligation of the L5 (and optionally the L6) spinal nerves on one side in experimental animals. Rats recovering from the surgery gain weight and display a level of general activity similar to that of normal rats. However, these rats develop abnormalities of the foot, wherein the hindpaw is moderately everted and the toes are held together. More importantly, the hindpaw on the side affected by the surgery appears to become sensitive to pain from low-threshold mechanical stimuli, such as that producing a faint sensation of touch in a human, within about 1 week following surgery. This sensitivity to normally non-painful touch is called “tactile allodynia” and lasts for at least two months. The response includes lifting the affected hindpaw to escape from the stimulus, licking the paw and holding it in the air for many seconds. None of these responses is normally seen in the control group.
Rats are anesthetized before surgery. The surgical site is shaved and prepared either with betadine or Novacaine. Incision is made from the thoracic vertebra XIII down toward the sacrum. Muscle tissue is separated from the spinal vertebra (left side) at the L4-S2 levels. The L6 vertebra is located and the transverse process is carefully removed with a small rongeur to expose the L4-L6 spinal nerves. The L5 and L6 spinal nerves are isolated and tightly ligated with 6-0 silk thread. The same procedure is done on the right side as a control, except no ligation of the spinal nerves is performed.
A complete hemostasis is confirmed, then the wounds are sutured. A small amount of antibiotic ointment is applied to the incised area, and the rat is transferred to the recovery plastic cage under a regulated heat-temperature lamp. On the day of the experiment, at least seven days after the surgery, typically six rats per test group are administered the test drugs by intraperitoneal (i.p.) injection or oral gavage. For i.p. injection, the compounds are formulated in approximately 10 to 50% DMSO and given in a volume of 1 ml/kg body weight.
Tactile allodynia is measured prior to and 30 minutes after drug administration using von Frey hairs that are a series of fine hairs with incremental differences in stiffness. Rats are placed in a plastic cage with a wire mesh bottom and allowed to acclimate for approximately 30 minutes. The von Frey hairs are applied perpendicularly through the mesh to the mid-plantar region of the rats' hindpaw with sufficient force to cause slight buckling and held for 6-8 seconds. The applied force has been calculated to range from 0.41 to 15.1 grams. If the paw is sharply withdrawn, it is considered a positive response. A normal animal will not respond to stimuli in this range, but a surgically ligated paw will be withdrawn in response to a 1-2 gram hair. The 50% paw withdrawal threshold is determined using the method of Dixon, W. J., Ann. Rev. Pharmacol. Toxicol. 20:441-462 (1980). The post-drug threshold is compared to the pre-drug threshold and the percent reversal of tactile sensitivity is calculated based on a normal threshold of 15.1 grams. The results are expressed in percent (%) MPE, where the MPE value reflects the percentage reversal of pain threshold to that of a normal animal (100%).

[2] = biological target: T1, alpha 2B receptor (Homo sapiens, UniProt P18089); experiment: RSAT assay (Receptor Selection and Amplification Technology), Alpha 2B; assay type: cell-based; conditions: RSAT, Table 1
T1 construct: expressed in transfected cells; host or cells: NIH-3T3
T1 sequence (P18089 1-450): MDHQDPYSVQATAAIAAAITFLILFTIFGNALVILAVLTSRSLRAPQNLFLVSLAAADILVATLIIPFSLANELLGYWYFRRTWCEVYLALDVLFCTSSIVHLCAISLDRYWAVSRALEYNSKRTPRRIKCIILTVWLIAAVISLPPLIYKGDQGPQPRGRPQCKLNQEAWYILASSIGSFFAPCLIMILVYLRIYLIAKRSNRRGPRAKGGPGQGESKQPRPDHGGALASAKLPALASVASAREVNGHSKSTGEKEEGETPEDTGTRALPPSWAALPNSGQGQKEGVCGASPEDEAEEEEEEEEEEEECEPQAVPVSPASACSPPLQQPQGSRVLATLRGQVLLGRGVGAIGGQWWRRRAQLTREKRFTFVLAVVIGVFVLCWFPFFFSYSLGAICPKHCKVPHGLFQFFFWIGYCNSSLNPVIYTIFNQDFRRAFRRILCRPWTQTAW
Procedure: The RSAT assay measures a receptor-mediated loss of contact inhibition that results in selective proliferation of receptor-containing cells in a mixed population of confluent cells. The increase in cell number is assessed with an appropriate transfected marker gene such as β-galactosidase, the activity of which can be easily measured in a 96-well format. Receptors that activate the G protein, Gq, elicit this response. Alpha 2 receptors, which normally couple to Gi, activate the RSAT response when coexpressed with a hybrid Gq protein that has a Gi receptor recognition domain, called Gq/i5.
NIH-3T3 cells are plated at a density of 2×10^6 cells in 15 cm dishes and maintained in Dulbecco's modified Eagle's medium supplemented with 10% calf serum. One day later, cells are cotransfected by calcium phosphate precipitation with mammalian expression plasmids encoding p-SV-β-galactosidase (5-10 μg), receptor (1-2 μg) and G protein (1-2 μg). 40 μg salmon sperm DNA may also be included in the transfection mixture. […] Cells are thawed and 100 μl added to 100 μL aliquots of various concentrations of drugs in triplicate in 96-well dishes. Incubations continue 72-96 hr at 37° C. After washing with phosphate-buffered saline, β-galactosidase enzyme activity is determined by adding 200 μL of the chromogenic substrate (consisting of 3.5 mM o-nitrophenyl-β-D-galactopyranoside and 0.5% nonidet P-40 in phosphate buffered saline), incubating overnight at 30° C. and measuring optical density at 420 nm. The absorbance is a measure of enzyme activity, which depends on cell number and reflects a receptor-mediated cell proliferation. The efficacy or intrinsic activity is calculated as a ratio of the maximal effect of the drug to the maximal effect of a standard full agonist for each receptor subtype. Brimonidine, the chemical structure of which is shown below, is used as the standard agonist for the alpha 2B and alpha 2C receptors. […] NA stands for “not active” at concentrations less than 3-10 micromolar.

With Cc1cccc(C(Cc2cccnc2)/N=C2/NCCO2)c1C (centres unmarked) [Compound 21, 1-(2,3-Dimethylphenyl)-N-(oxazolidin-2-ylidene)-2-(pyridin-3-yl)ethanamine] the “% Pain Reversal ± SEM” value ([1]; 0.10 mg i.p., 30 min) was 27 ± 5%, the “% Pain Reversal ± SEM” value ([1]; 0.10 mg i.p., 60 min) was about 10% and the “% Pain Reversal ± SEM” value ([1]; 0.30 mg i.p., 30 min) was 60.1 ± 12.8%. The “% Pain Reversal ± SEM” value ([1]; 0.30 mg i.p., 60 min) was 21.5 ± 6.1%, the “% Pain Reversal ± SEM” value ([1]; 1.0 mg i.p., 30 min) was 95.9 ± 4.1% and the “% Pain Reversal ± SEM” value ([1]; 1.0 mg i.p., 60 min) was 77.0 ± 7.6%. For the same compound, the EC50 ([2]; transfected NIH-3T3 cells with Gq/i5, read-out: potency nM (EC50) Alpha 2B) was 5 nM and the “Intrinsic Activity efficacy Alpha 2B” value ([2]; value in parentheses, ratio of maximal effect to that of brimonidine) was 1.2.
